Literature values in patent US11773111B1, “Selective 5-LO inhibitors for the treatment of bronchial asthma” (KING FAISAL UNIVERSITY, priority 2022, dated 2023).

Key:
[1] = not given; remark: listed apart in the source
[2] = clinical use

Compound: CC(c1cc2ccccc2s1)N(O)C(N)=O (stereo not drawn) [Zileuton]
- serum half-life: 3 h
- plasma protein binding [1]: 93%
- undesirable side effects [2]: hepatoxicity
